# ChEMBL document CHEMBL3751701, “Class I and Class II Lanthipeptides Produced by Bacillus spp” (2015)
# Columns and labels:
# Lactococcus lactis = assay: Antibacterial activity against Lactococcus lactis MG1614 by agar diffusion assay; assay type: functional
# Micrococcus luteus [1] = assay: Antibacterial activity against Micrococcus luteus […] 8166 by agar diffusion assay; assay type: functional
# Bacillus cereus [2] = assay: Antibacterial activity against Bacillus cereus RFB125 after 24 hrs by microdilution method; assay type: functional; conditions: RFB125, 24 h
# Priestia megaterium = assay: Antibacterial activity against Bacillus megaterium RFB124 after 24 hrs by microdilution method; assay type: functional; conditions: RFB124, 24 h
# Bacillus spizizenii = assay: Antibacterial activity against Bacillus subtilis ATCC 6633 after 24 hrs by microdilution method; assay type: functional; conditions: ATCC 6633, 24 h
# Enterococcus faecalis [3] = assay: Antibacterial activity against Enterococcus faecalis ATCC 29212 after 24 hrs by microdilution method; assay type: functional; conditions: ATCC 29212, 24 h
# Enterococcus faecium [4] = assay: Antibacterial activity against Enterococcus faecium RFB128 after 24 hrs by microdilution method; assay type: functional; conditions: RFB128, 24 h
# Listeria innocua = assay: Antibacterial activity against Listeria innocua ATCC 33090 after 24 hrs by microdilution method; assay type: functional; conditions: ATCC 33090, 24 h
# Listeria monocytogenes [5] = assay: Antibacterial activity against Listeria monocytogenes LMG 21263 after 24 hrs by microdilution method; assay type: functional; conditions: LMG 21263, 24 h
# Listeria monocytogenes [6] = assay: Antibacterial activity against Listeria monocytogenes LMG 23905 after 24 hrs by microdilution method; assay type: functional; conditions: LMG 23905, 24 h
# Kocuria rhizophila [7] = assay: Antibacterial activity against Micrococcus luteus ATCC 9341 after 24 hrs by microdilution method; assay type: functional
# Staphylococcus aureus [8] = assay: Antibacterial activity against Staphylococcus aureus ATCC 25923 after 24 hrs by microdilution method; assay type: functional; conditions: ATCC 25923, 24 h
# Staphylococcus aureus [9] = assay: Antibacterial activity against methicillin-resistant Staphylococcus aureus ATCC 43300 after 24 hrs by microdilution method; assay type: functional; conditions: ATCC 43300, 24 h
# Staphylococcus aureus [10] = assay: Antibacterial activity against Staphylococcus aureus RFB127 after 24 hrs by microdilution method; assay type: functional; conditions: RFB127, 24 h
# [11] = system: Staphylococcus epidermidis; assay: Antibacterial activity against Staphylococcus epidermidis ATCC 1228 after 24 hrs by microdilution method; assay type: functional; conditions: ATCC 1228, 24 h
# Streptococcus agalactiae = assay: Antibacterial activity against Streptococcus agalactiae RFB141 after 24 hrs by microdilution method; assay type: functional; conditions: RFB141, 24 h
# Enterococcus faecium [12] = assay: Antibacterial activity against Enterococcus faecium ATCC 19579 after 18 to 20 hrs by agar well diffusion method; assay type: functional
# Enterococcus faecium [13] = assay: Antibacterial activity against vancomycin-resistant Enterococcus faecium 7131121 after 18 to 20 hrs by agar well diffusion method; assay type: functional
# Enterococcus faecalis [14] = assay: Antibacterial activity against Enterococcus faecalis ATCC 29212 after 18 to 20 hrs by agar well diffusion method; assay type: functional
# Micrococcus luteus [15] = assay: Antibacterial activity against Micrococcus luteus ATCC 4698 after 18 to 20 hrs by agar well diffusion method; assay type: functional; conditions: NCTC 2665
# [16] = system: Staphylococcus epidermidis; assay: Antibacterial activity against Staphylococcus epidermidis NCTC 11047 after 18 to 20 hrs by agar well diffusion method; assay type: functional
# Staphylococcus aureus [17] = assay: Antibacterial activity against Staphylococcus aureus SH1000 after 18 to 20 hrs by agar well diffusion method; assay type: functional
# Staphylococcus aureus [18] = assay: Antibacterial activity against methicillin-resistant Staphylococcus aureus R33 after 18 to 20 hrs by agar well diffusion method; assay type: functional
# Staphylococcus aureus [19] = assay: Antibacterial activity against Staphylococcus aureus SG511 after 18 hrs by broth microdilution method; assay type: functional; conditions: SG511, 18 h
# Staphylococcus aureus [20] = assay: Antibacterial activity against Staphylococcus aureus 137/93A after 18 hrs by broth microdilution method; assay type: functional
# Staphylococcus aureus [21] = assay: Antibacterial activity against Staphylococcus aureus 137/93G after 18 hrs by broth microdilution method; assay type: functional
# Streptococcus pneumoniae = assay: Antibacterial activity against Streptococcus pneumoniae BAA-255 after 18 to 20 hrs by agar well diffusion method; assay type: functional
# Staphylococcus aureus [22] = assay: Ratio of MIC for Staphylococcus aureus 137/93A to MIC for Staphylococcus aureus SG511; assay type: functional
# [23] = Ratio of MIC for Enterococcus faecalis ATCC 29212 to MIC for Enterococcus faecium ATCC 19579; assay type: functional
# Enterococcus faecalis [24] = assay: Antibacterial activity against Enterococcus faecalis ATCC 29212 by microdilution method; assay type: functional
# Enterococcus faecalis [25] = assay: Antibacterial activity against Enterococcus faecalis ATCC 51299 by microdilution method; assay type: functional
# Kocuria rhizophila [26] = assay: Antibacterial activity against Micrococcus luteus ATCC 9341 by microdilution method; assay type: functional
# Staphylococcus aureus [27] = assay: Antibacterial activity against Staphylococcus aureus ATCC 29213 by microdilution method; assay type: functional
# Staphylococcus aureus [28] = assay: Antibacterial activity against methicillin-resistant Staphylococcus aureus ATCC 43300 by microdilution method; assay type: functional
# Bacillus cereus [29] = assay: Antibacterial activity against Bacillus cereus UW85 after 120 mins by agar well diffusion method; assay type: functional; conditions: UW85, 2 h
# Bacillus firmus = assay: Antibacterial activity against Bacillus firmus BCRC 11944 after 120 mins by agar well diffusion method; assay type: functional; conditions: Cytobacillus firmus, BCRC 11944, 2 h
# Bacillus subtilis [30] = assay: Antibacterial activity against Bacillus subtilis 168 after 120 mins by agar well diffusion method; assay type: functional; conditions: subsp. subtilis str. 168, 2 h
# Bacillus subtilis [31] = assay: Antibacterial activity against Bacillus subtilis BSn5 after 120 mins by agar well diffusion method; assay type: functional; conditions: BSn5, 2 h
# Bacillus thuringiensis [32] = assay: Antibacterial activity against Bacillus thuringiensis BMB171 after 120 mins by agar well diffusion method; assay type: functional; conditions: BMB171, 2 h
# Bacillus thuringiensis [33] = assay: Antibacterial activity against Bacillus thuringiensis YBT-1518 after 120 mins by agar well diffusion method; assay type: functional; conditions: YBT-1518, 2 h
# Bacillus pumilus = assay: Antibacterial activity against Bacillus pumilus SCG I after 120 mins by agar well diffusion method; assay type: functional; conditions: 2 h
# Enterococcus faecalis [34] = assay: Antibacterial activity against Enterococcus faecalis Bom3 after 120 mins by agar well diffusion method; assay type: functional; conditions: Bom3, 2 h
# Microbacterium = assay: Antibacterial activity against Microbacterium Pri2 after 120 mins by agar well diffusion method; assay type: functional; conditions: Pri2, 2 h
# Staphylococcus sciuri = assay: Antibacterial activity against Staphylococcus sciuri Bom1 after 120 mins by agar well diffusion method; conditions: Bom1, 2 h
smiles,measurement,setting,value
C=C(NC(=O)[C@@H](NC(=O)[C@H](CCCCN)NC(=O)[C@H]1CSC(C)C2NC(=O)[C@H](CC(C)C)NC(=O)C(NC(=O)[C@@H](CCC(N)=O)NC(=O)[C@@H](CC(C)C)NC(=O)[C@@H](Cc3ccccc3)NC(=O)[C@H]3CSC(C)C(NC(=O)[C@@H](NC(=O)[C@H]4CSC(C)C(NC(=O)[C@H]5CSC[C@@H](NC(=O)[C@@H](CCCCN)NC(=O)[C@H](Cc6c[nH]c7ccccc67)NC(=O)CCC(=O)O)C(=O)N[C@H](CCC(=O)O)C(=O)NC(=C)C(=O)N[C@H](CC(C)C)C(=O)N5)C(=O)N5CCC[C@H]5C(=O)NCC(=O)N4)C(C)C)C(=O)NCC(=O)N[C@H](C)C(=O)N[C@H](CC(C)C)C(=O)N[C@H](CCC(N)=O)C(=O)N/C(=C\C)C(=O)N3)C(C)SC[C@H](NC2=O)C(=O)N[C@@H](CC(N)=O)C(=O)N1)[C@@H](C)CC)C(=O)N[C@H](CCCCN)C(=O)O (stereo partly specified),MIC,Lactococcus lactis,5.55 µM
same,MIC,Micrococcus luteus [1],0.0994 µM
C/C=C(\NC(=O)[C@H](Cc1cnc[nH]1)NC(=O)/C(=C/C)NC(=O)[C@@H]1CCCN1C(=O)[C@@H]1CSC[C@@H]2NC(=O)[C@H](CC(C)C)NC(=O)[C@@H](NC(=O)[C@H]3CSC[C@@H](NC(=O)[C@@H](NC(=O)CNC(=O)[C@H](CCCNC(=N)N)NC(=O)[C@H](CCC(N)=O)NC(=O)[C@H](CCC(=O)O)NC(=O)[C@H](C)N)[C@H](C)CC)C(=O)N[C@@H](CCC(N)=O)C(=O)NCC(=O)N[C@H](CC(N)=O)C(=O)N[C@H](CC(=O)O)C(=O)NCC(=O)N[C@H](CCCCN)C(=O)N[C@@H](CC(C)C)C(=O)N3)CSC[C@@H](NC(=O)[C@H](CCC(=O)O)NC(=O)[C@H](Cc3c[nH]c4ccccc34)NC2=O)C(=O)NCC(=O)N[C@@H](CC(C)C)C(=O)N1)C(=O)N[C@@H](CS)C(=O)N[C@H](Cc1c[nH]c2ccccc12)C(=O)N[C@H](CS)C(=O)O,MIC,Bacillus cereus [2],0.2 µM
same,MIC,Priestia megaterium,0.4 µM
same,MIC,Bacillus spizizenii,1.4 µM
same,MIC,Enterococcus faecalis [3],1.4 µM
same,MIC,Enterococcus faecium [4],0.1 µM
same,MIC,Listeria innocua,0.7 µM
same,MIC,Listeria monocytogenes [5],0.5 µM
same,MIC,Listeria monocytogenes [6],0.4 µM
same,MIC,Kocuria rhizophila [7],0.7 µM
same,MIC,Staphylococcus aureus [8],2.8 µM
same,MIC,Staphylococcus aureus [9],0.4 µM
same,MIC,Staphylococcus aureus [10],1.4 µM
same,MIC,[11],2.8 µM
same,MIC,Streptococcus agalactiae,2.8 µM
C=C1NC(=O)C2NC(=O)[C@H](CC(C)C)NC(=O)C(NC(=O)[C@@H]3CSC(C)[C@H](NC(=O)[C@H](Cc4ccccc4)NC(=O)C4NC(=O)[C@@H](N)CSC4C)C(=O)N[C@@H](CC(C)C)C(=O)N4CCC[C@H]4C(=O)NCC(=O)NCC(=O)NCC(=O)NCC(=O)N[C@@H](C(C)C)C(=O)N3)C(C)SC[C@@H](NC(=O)[C@H](CCC(=O)O)NC1=O)C(=O)N[C@@H]([C@H](C)CC)C(=O)N/C=C/SC2C (stereo partly specified),MIC,Enterococcus faecium [12],17.5 µM
same,MIC,Enterococcus faecium [13],35.1 µM
same,MIC,Enterococcus faecalis [14],35.1 µM
same,MIC,Micrococcus luteus [15],0.657 µM
same,MIC,[16],8.94 µM
same,MIC,Staphylococcus aureus [17],17.5 µM
same,MIC,Staphylococcus aureus [18],17.5 µM
same,MIC,Staphylococcus aureus [19],0.548 µM
same,MIC,Staphylococcus aureus [20],19.2 µM
same,MIC,Staphylococcus aureus [21],16.4 µM
same,MIC,Streptococcus pneumoniae,1.1 µM
same,Ratio,Staphylococcus aureus [22],35
same,Ratio,[23],2
C=C(NC(=O)[C@H](NC(=O)[C@@H](CCCCN)NC(=O)[C@@H]1CSC(C)C2NC(=O)[C@@H]([C@H](C)CC)NC(=O)C(NC(=O)[C@@H](CCC(N)=O)NC(=O)[C@@H](CC(C)C)NC(=O)[C@@H](Cc3ccccc3)NC(=O)[C@@H]3CSC(C)C(NC(=O)[C@H](NC(=O)[C@@H]4CSC(C)C(NC(=O)[C@H]5CSC[C@@H](NC(=O)[C@@H](CCCCN)NC(=O)[C@H](N)Cc6c[nH]c7ccccc67)C(=O)N[C@H](CCC(=O)O)C(=O)NC(=C)C(=O)N[C@H](C(C)C)C(=O)N5)C(=O)N5CCC[C@@H]5C(=O)NCC(=O)N4)C(C)C)C(=O)NCC(=O)N[C@@H](CC(C)C)C(=O)N[C@@H](CC(C)C)C(=O)N[C@H](CCC(N)=O)C(=O)N/C(=C\C)C(=O)N3)C(C)SC[C@@H](NC2=O)C(=O)N[C@H](CC(N)=O)C(=O)N1)[C@H](C)CC)C(=O)N[C@@H](CCCCN)C(=O)O (stereo partly specified),MIC,Enterococcus faecalis [24],4.84 µM
same,MIC,Enterococcus faecalis [25],2.32 µM
same,MIC,Kocuria rhizophila [26],1.16 µM
same,MIC,Staphylococcus aureus [27],1.16 µM
same,MIC,Staphylococcus aureus [28],2.32 µM
C=C1NC(=O)[C@@H]2CSC(C)C(NC(=O)[C@@H]3CSC(C)C4NC(=O)CNC(=O)C(NC(=O)[C@H](CCCCN)NC(=O)[C@@H]5CSC[C@H](NC(=O)[C@@H](NC(=O)[C@H](CCCCN)NC(=O)[C@@H](NC(=O)[C@@H](NC(=O)/C(=C/C)NC(=O)/C(=C\C)NC(=O)[C@H](Cc6c[nH]c7ccccc67)NC(=O)C(=O)CC)[C@@H](C)CC)C(C)C)C(C)C)C(=O)N[C@@H](CCCCN)C(=O)N[C@@H](C)C(=O)N[C@@H](C(C)C)C(=O)N5)C(C)SC[C@H](NC4=O)C(=O)N[C@@H]([C@@H](C)CC)C(=O)N3)C(=O)N/C(=C\C)C(=O)N[C@@H](CSC[C@@H](C(=O)N[C@@H](CCCCN)C(=O)O)NC(=O)[C@H](CC(N)=O)NC1=O)C(=O)N2 (stereo partly specified),MIC,Bacillus cereus [29],7.8 µM
same,MIC,Bacillus firmus,0.326 µM
same,MIC,Bacillus subtilis [30],5.2 µM
same,MIC,Bacillus subtilis [31],5.2 µM
same,MIC,Bacillus thuringiensis [32],1.3 µM
same,MIC,Bacillus thuringiensis [33],1.3 µM
same,MIC,Bacillus pumilus,0.65 µM
same,MIC,Enterococcus faecalis [34],2.6 µM
same,MIC,Microbacterium,5.2 µM
same,MIC,Staphylococcus sciuri,1.95 µM
C=C(NC(=O)[C@H](NC(=O)[C@@H](CCCCN)NC(=O)[C@@H]1CSC(C)C2NC(=O)[C@@H](CC(C)C)NC(=O)C(NC(=O)[C@H](CCC(N)=O)NC(=O)[C@H](CC(C)C)NC(=O)[C@H](Cc3ccccc3)NC(=O)[C@@H]3CSC(C)C(NC(=O)[C@H](NC(=O)[C@@H]4CSC(C)C(NC(=O)[C@H]5CSC[C@H](NC(=O)[C@H](CCCCN)NC(=O)[C@@H](N)Cc6c[nH]c7ccccc67)C(=O)N[C@@H](CCC(=O)O)C(=O)NC(=C)C(=O)N[C@@H](CC(C)C)C(=O)N5)C(=O)N5CCC[C@@H]5C(=O)NCC(=O)N4)C(C)C)C(=O)NCC(=O)N[C@@H](C)C(=O)N[C@@H](CC(C)C)C(=O)N[C@@H](CCC(N)=O)C(=O)N/C(=C\C)C(=O)N3)C(C)SC[C@@H](NC2=O)C(=O)N[C@H](CC(N)=O)C(=O)N1)[C@H](C)CC)C(=O)N[C@@H](CCCCN)C(=O)O (stereo partly specified),MIC,Lactococcus lactis,0.301 µM
same,MIC,Micrococcus luteus [1],0.0151 µM
